Laboratory results published in paper PMC10935252, “Synthesis and Biological Evaluation of New Dihydrofuro[3,2-b]piperidine Derivatives as Potent α-Glucosidase Inhibitors” (Molecules, 2024).

Molecular target: α-glucosidase from yeast
Assay: α-Glucosidase inhibition assay
Type: biochemical, Baker’s yeast
Settings: for IC50: substrate maltose 0.5 mM, pH 6.8, 37 °C, mean ± SD of three independent experiments, read-out: IC50 against α-glucosidase from yeast
Description: α-Glucosidase activity was assayed by the method reported, with minor modifications. […] The reaction mixture contained 150 μL of enzyme solution, 150 μL of inhibitor, and 150 μL of substrate (maltose). The substrate and α-glucosidase (Baker’s yeast) were purchased from Sigma-Aldrich Chemical (St. Louis, MO, USA). Both the inhibitor and the substrate were first dissolved in dimethylsulfoxide (DMSO) and then diluted with Na2HPO4/NaH2PO4 buffer for a final concentration of DMSO of 5%. The enzymatic reaction was started after incubation of the enzyme (0.04 U/mL) for 10 min in the presence of the inhibitor (five different concentrations) by the addition of the substrate (0.5 mM). The mixture was incubated at 37 °C for 60 min, and the reaction was quenched in boiling water for 10 min. The supernatant was taken to determine the content of glucose by means of the glucose oxidase method using a commercial glucose kit (Sichuan Mike Biotechnology Co., Ltd., Chengdu, China). The absorption at 505 nm was measured immediately and taken as the relative rate for the hydrolysis of the substrate. The blank control (the distilled water instead of sample and enzyme solution in the process) and the negative control (distilled water instead of sample solution in the process) were also prepared. Acarbose was used as the positive control. To calculate the inhibition rate (%), the following formula was used: (controlnegative − sample)/(controlnegative − controlblank) × 100%. The entire experiment was carried out in triplicate.

| SMILES | IC50 [µM] | times stronger activity than the positive control acarbose (ratio of IC50 values against α-glucosidase from yeast) [times] |
| --- | --- | --- |
| C[C@H]1O[C@H](O[C@H]2[C@H](O)[C@@H](O)[C@@H](O[C@H]3[C@H](O)[C@@H](O)C(O)O[C@@H]3CO)O[C@@H]2CO)[C@H](O)[C@@H](O)[C@@H]1N[C@H]1C=C(CO)[C@@H](O)[C@H](O)[C@H]1O (some centres unmarked) [Acarbose, reference compound] | 2 ± 0.2 |  |
| CC(=O)C[C@H]1NC[C@@H](O)[C@@H](O)[C@@H]1O [Compound 6] | > 20 |  |
| CC(=O)C[C@H]1NC[C@H](O)[C@H](O)[C@H]1O [Compound 12] | > 20 |  |
| C[C@]1(O)C[C@@H]2[C@@H](O1)[C@H](O)[C@H](O)CN2Cc1ccc(O)cc1 [Compound 14, (2R, 3aR, 6R, 7R, 7aR)-2,6,7-trihydroxy-2-methyl-4-(4-hydroxylbenzyl)-3a,7a-Dihydrofuro[3,2-b]piperidine] | 10 ± 0.7 |  |
| C[C@]1(O)C[C@@H]2[C@@H](O1)[C@H](O)[C@H](O)CN2Cc1ccc(O)c(Cl)c1 [Compound 17, (2R, 3aR, 6R, 7R, 7aR)-2,6,7-trihydroxy-2-methyl-4-(3-chloro-4-hydroxylbenzyl)-3a,7a-Dihydrofuro[3,2-b]piperidine] | 4.9 ± 0.2 |  |
| C[C@]1(O)C[C@@H]2[C@@H](O1)[C@H](O)[C@H](O)CN2Cc1ccc(O)c(Br)c1 [Compound 18, (2R, 3aR, 6R, 7R, 7aR)-2,6,7-trihydroxy-2-methyl-4-(3-bromo-4-hydroxylbenzyl)-3a,7a-Dihydrofuro[3,2-b]piperidine] | 5.5 ± 0.4 |  |
| C[C@]1(O)C[C@@H]2[C@@H](O1)[C@H](O)[C@H](O)CN2Cc1ccc(O)c(F)c1 [Compound 19, (2R, 3aR, 6R, 7R, 7aR)-2,6,7-trihydroxy-2-methyl-4-(3-fluoro-4-hydroxylbenzyl)-3a,7a-Dihydrofuro[3,2-b]piperidine] | 5.4 ± 0.3 |  |
| C[C@]1(O)C[C@@H]2[C@@H](O1)[C@H](O)[C@H](O)CN2Cc1c(Cl)cc(O)cc1Cl [Compound 21, (2R, 3aR, 6R, 7R, 7aR)-2,6,7-trihydroxy-2-methyl-4-(2,6-dichloro-4-hydroxylbenzyl)-3a,7a-Dihydrofuro[3,2-b]piperidine] | 0.91 ± 0.1 |  |
| COc1cc(CN2C[C@@H](O)[C@@H](O)[C@@H]3O[C@@](C)(O)C[C@H]32)ccc1O [Compound 22, (2R, 3aR, 6R, 7R, 7aR)-2,6,7-trihydroxy-2-methyl-4-(4-hydroxyl-methoxylbenzyl)-3a,7a-Dihydrofuro[3,2-b]piperidine] | 10.5 ± 0.8 |  |
| CCOc1cc(CN2C[C@@H](O)[C@@H](O)[C@@H]3O[C@@](C)(O)C[C@H]32)ccc1O [Compound 23, (2R, 3aR, 6R, 7R, 7aR)-2,6,7-trihydroxy-2-methyl-4-(4-hydroxyl-3-ethyoxylbenzyl)-3a,7a-Dihydrofuro[3,2-b]piperidine] | 9 ± 0.6 |  |
| C[C@]1(O)C[C@@H]2[C@@H](O1)[C@H](O)[C@H](O)CN2Cc1cc(Br)c(O)c(Br)c1 [Compound 24, (2R, 3aR, 6R, 7R, 7aR)-2,6,7-trihydroxy-2-methyl-4-(3,5-dibromo-4-hydroxyl-benzyl)-3a,7a-Dihydrofuro[3,2-b]piperidine] | 1.9 ± 0.2 |  |
| C[C@]1(O)C[C@@H]2[C@H](O1)[C@@H](O)[C@@H](O)CN2Cc1ccc(O)c(Cl)c1 [Compound 28, (2R, 3aR, 6S, 7S, 7aS)-2,6,7-trihydroxy-2-methyl-4-(3-chloro-4-hydroxylbenzyl)-3a,7a-Dihydrofuro[3,2-b]piperidine] | 0.5 ± 0.1 |  |
| C[C@]1(O)C[C@@H]2[C@H](O1)[C@@H](O)[C@@H](O)CN2Cc1ccc(O)c(Br)c1 [Compound 29, (2R, 3aR, 6S, 7S, 7aS)-2,6,7-trihydroxy-2-methyl-4-(3-bromo-4-hydroxylbenzyl)-3a,7a-Dihydrofuro[3,2-b]piperidine] | 1.2 ± 0.1 |  |
| C[C@]1(O)C[C@@H]2[C@H](O1)[C@@H](O)[C@@H](O)CN2Cc1ccc(O)c(F)c1 [Compound 30, (2R, 3aR, 6S, 7S, 7aS)-2,6,7-trihydroxy-2-methyl-4-(3-fluoro-4-hydroxylbenzyl)-3a,7a-Dihydrofuro[3,2-b]piperidine] | 2.6 ± 0.3 |  |
| C[C@]1(O)C[C@@H]2[C@H](O1)[C@@H](O)[C@@H](O)CN2Cc1c(Cl)cc(O)cc1Cl [Compound 32, (2R, 3aR, 6S, 7S, 7aS)-2,6,7-trihydroxy-2-methyl-4-(2,6-dichloro-4-hydroxylbenzyl)-3a,7a-Dihydrofuro[3,2-b]piperidine] | 0.07 ± 0.01 | 30 |
| COc1cc(CN2C[C@H](O)[C@H](O)[C@H]3O[C@@](C)(O)C[C@H]32)ccc1O [Compound 33, (2R, 3aR, 6S, 7S, 7aS)-2,6,7-trihydroxy-2-methyl-4-(4-hydroxyl-methoxylbenzyl)-3a,7a-Dihydrofuro[3,2-b]piperidine] | > 20 |  |
| CCOc1cc(CN2C[C@H](O)[C@H](O)[C@H]3O[C@@](C)(O)C[C@H]32)ccc1O [Compound 34, (2R, 3aR, 6S, 7S, 7aS)-2,6,7-trihydroxy-2-methyl-4-(4-hydroxyl-3-ethyoxylbenzyl)-3a,7a-Dihydrofuro[3,2-b]piperidine] | > 20 |  |

Further lines, results first:

| IC50 [µM] | times stronger activity than the positive control acarbose (ratio of IC50 values against α-glucosidase from yeast) [times] | SMILES |
| --- | --- | --- |
| 13 ± 0.5 |  | C[C@]1(O)C[C@@H]2[C@@H](O1)[C@H](O)[C@H](O)CN2Cc1ccccc1Cl [Compound 13, (2R, 3aR, 6R, 7R, 7aR)-2,6,7-trihydroxy-2-methyl-4-(2-chlorobenzyl)-3a,7a-Dihydrofuro[3,2-b]piperidine] |
| > 20 |  | C[C@]1(O)C[C@@H]2[C@@H](O1)[C@H](O)[C@H](O)CN2Cc1ccccc1O [Compound 15, (2R, 3aR, 6R, 7R, 7aR)-2,6,7-trihydroxy-2-methyl-4-(2-hydroxylbenzyl)-3a,7a-Dihydrofuro[3,2-b]piperidine] |
| > 20 |  | C[C@]1(O)C[C@@H]2[C@@H](O1)[C@H](O)[C@H](O)CN2Cc1cccc(O)c1 [Compound 16, (2R, 3aR, 6R, 7R, 7aR)-2,6,7-trihydroxy-2-methyl-4-(3-hydroxylbenzyl)-3a,7a-Dihydrofuro[3,2-b]piperidine] |
| 4.4 ± 0.3 |  | C[C@]1(O)C[C@@H]2[C@@H](O1)[C@H](O)[C@H](O)CN2Cc1ccc(O)cc1Cl [Compound 20, (2R, 3aR, 6R, 7R, 7aR)-2,6,7-trihydroxy-2-methyl-4-(2-chloro-4-hydroxylbenzyl)-3a,7a-Dihydrofuro[3,2-b]piperidine] |
| 8.3 ± 0.4 |  | C[C@]1(O)C[C@@H]2[C@H](O1)[C@@H](O)[C@@H](O)CN2Cc1ccc(O)cc1 [Compound 25, (2R, 3aR, 6S, 7S, 7aS)-2,6,7-trihydroxy-2-methyl-4-(4-hydroxylbenzyl)-3a,7a-di-hydrofuro[3,2-b]piperidine] |
| > 20 |  | C[C@]1(O)C[C@@H]2[C@H](O1)[C@@H](O)[C@@H](O)CN2Cc1ccccc1O [Compound 26, (2R, 3aR, 6S, 7S, 7aS)-2,6,7-trihydroxy-2-methyl-4-(2-hydroxylbenzyl)-3a,7a-di-hydrofuro[3,2-b]piperidine] |
| 3.7 ± 0.1 |  | C[C@]1(O)C[C@@H]2[C@H](O1)[C@@H](O)[C@@H](O)CN2Cc1cccc(O)c1 [Compound 27, (2R, 3aR, 6S, 7S, 7aS)-2,6,7-trihydroxy-2-methyl-4-(3-hydroxylbenzyl)-3a,7a-di-hydrofuro[3,2-b]piperidine] |
| 1.8 ± 0.2 |  | C[C@]1(O)C[C@@H]2[C@H](O1)[C@@H](O)[C@@H](O)CN2Cc1ccc(O)cc1Cl [Compound 31, (2R, 3aR, 6S, 7S, 7aS)-2,6,7-trihydroxy-2-methyl-4-(2-chloro-4-hydroxylbenzyl)-3a,7a-Dihydrofuro[3,2-b]piperidine] |
